# Test results published in patent publication US8809270B2, “Method for reducing cardiovascular morbidity and mortality in prediaetic patients and patients with type 2 diabetes” (priority 2003, dated 2014).
# How the values were obtained:
# [1] = Post-marketing surveillance safety database; set-up: species or system human
# Source text: (§1) Treatment with Lantus® LANTUS (insulin glargine) insulin offers the possibility of a smooth, daylong, blood insulin profile without a definite peak that can be finely titrated to lower subjects' FPG in a durable manner, while minimizing the risk of hypoglycemia at other times of day.
# [2] = tested on: type 2 diabetic population inadequately treated with oral drugs; test: Treat-to-Target study (HOE901/4002): lipid data; type: in vivo, human; set-up: Triglycerides % reduction from baseline / Triglycerides % reduction from baseline, LANTUS-AMARYL / Non-HDL Cholesterol Total % reduction from baseline / Non-HDL Cholesterol Total % reduction from baseline, LANTUS-AMARYL: concentration or dose not given beside the values; Triglycerides Baseline / Triglycerides Endpoint: unit not given beside the values; conditions: for Non-HDL Cholesterol Total % reduction from baseline, LANTUS-AMARYL / Non-HDL Cholesterol Total change at endpoint, LANTUS-AMARYL / Triglycerides % reduction from baseline, LANTUS-AMARYL / Triglycerides change at endpoint, LANTUS-AMARYL: LANTUS (4002 Study) minus AMARYL (two AMARYL studies)
# Source text: As a consequence of the excellent glycemic control attained, which set the standard for glycemic control in future trials, the 4002 study results are especially useful as an assessment of Lantus's LANTUS (insulin glargine) effects on lipids.
# [3] = tested on: individuals with IGT, IFG, or mild untreated type 2 diabetes; test: Study HOE901/1021: adverse events and hypoglycemia; type: in vivo, human
# Description: The study was conducted at three centers in the US. After screening tests, including fasting plasma glucose (FPG) and post prandial plasma glucose (PPG; two hours following a 75 g oral glucose load) for classification as IGT, IFG, diabetic, or normal glucose tolerance (NGT), and after satisfying other inclusion criteria including the ability to perform moderate exercise on a stationary bicycle, subjects were admitted to an inpatient study center. They were confined there for the next 15 days, during which time they were randomly assigned to receive either HOE901 once per day subcutaneously in the evening, or matching placebo (saline) injections in a 3:1 randomization (HOE901:placebo). Baseline assessments included a 5-point (before each meal, bedtime, and 3 AM) and 8-point (5-point plus readings 2 hours after each meal) blood glucose profile on separate days, and 15 minutes of exercise on a stationary bicycle at a level of exertion of “somewhat hard” on the Borg scale with blood glucose values monitored during and for 3 hours following the exercise. Each subject received a 25 kCal/kg diet while confined in the study center. Capillary whole blood glucose values were recorded on HemoCue devices. Episodes of hypoglycemia (blood glucose 50 mg/dL [2.8 mM] or symptoms with blood glucose 65 mg/dL [3.6 mM]) were recorded.
# Treatment-emergent adverse events (TEAEs) occurred in 10 subjects in the HOE901 group (16 events) vs. 2 in the placebo group (5 events). Each event occurred in only 1 individual except for headache, which occurred in 3 HOE901 subjects. Only 2 HOE901 subjects and 1 placebo subject had events that were considered by investigators as possibly related to study drug. The HOE901 events were 2 episodes of headache, and one of hypoglycemia. The two headaches occurred in subjects who had hypoglycemic events on the same days and at approximately the same time as the headaches. […] Subject 3011 (who reported dizziness as an adverse event during screening) was removed from the study by the sponsor prior to receiving any study drug dose because of hypoglycemia that occurred during screening.
# Only mild hypoglycemia occurred in 4 out of 16 subjects treated with HOE901 in this study. These hypoglycemic events generally occurred before lunch or supper, and resolved promptly with oral caloric intake. No episodes of hypoglycemia occurred in relation to exercise. Although the calorie-restricted diet subjects consumed during this study doubtless played a role in the occurrence of these events, the diet was typical in size for what is recommended to these frequently overweight individuals. […] Hypoglycemia can occur, but is manageable not related to exercise, and detectable with the aid of home glucose monitoring.
# [4] = in vivo; cited from earlier work
# [5] = Multiple-dose pharmacokinetic study (Study 1020); type: in vivo; conditions: 2 days of treatment
# Source text: as §1
substance,measurement,setting,value
insulin glargine [LANTUS],incidence of hypoglycemia or unexpected adverse reactions compared to other marketed insulin preparations,[1],no increased incidence of hypoglycemia or unexpected adverse reactions
same,HDL Baseline,[2]; TG baseline range 200-500,42
same,HDL Endpoint,[2]; TG baseline range 200-500,41
same,Non-HDL Cholesterol Total % reduction from baseline,[2]; TG baseline range 200-500,7%
same,Non-HDL Cholesterol Total Baseline,[2]; TG baseline range 200-500,167
same,Non-HDL Cholesterol Total Endpoint,[2]; TG baseline range 200-500,155
same,Triglycerides % reduction from baseline,[2]; TG baseline range 200-500,25%
same,Triglycerides Baseline,[2]; TG baseline range 200-500,288
same,Triglycerides Endpoint,[2]; TG baseline range 200-500,232
same,"Non-HDL Cholesterol Total % reduction from baseline, LANTUS-AMARYL",[2]; TG baseline range 200-500,4%
same,"Non-HDL Cholesterol Total change at endpoint, LANTUS-AMARYL",[2]; TG baseline range 200-500,5.8
same,"Triglycerides % reduction from baseline, LANTUS-AMARYL",[2]; TG baseline range 200-500,13%
same,"Triglycerides change at endpoint, LANTUS-AMARYL",[2]; TG baseline range 200-500,21.7
same,HDL Baseline,[2]; TG baseline range 300-500,40
same,HDL Endpoint,[2]; TG baseline range 300-500,40
same,Non-HDL Cholesterol Total % reduction from baseline,[2]; TG baseline range 300-500,15%
same,Non-HDL Cholesterol Total Baseline,[2]; TG baseline range 300-500,180
same,Non-HDL Cholesterol Total Endpoint,[2]; TG baseline range 300-500,152
same,Triglycerides % reduction from baseline,[2]; TG baseline range 300-500,34%
same,Triglycerides Baseline,[2]; TG baseline range 300-500,362
same,Triglycerides Endpoint,[2]; TG baseline range 300-500,240
same,"Non-HDL Cholesterol Total % reduction from baseline, LANTUS-AMARYL",[2]; TG baseline range 300-500,12%
same,"Non-HDL Cholesterol Total change at endpoint, LANTUS-AMARYL",[2]; TG baseline range 300-500,21.9
same,"Triglycerides % reduction from baseline, LANTUS-AMARYL",[2]; TG baseline range 300-500,16%
same,"Triglycerides change at endpoint, LANTUS-AMARYL",[2]; TG baseline range 300-500,52.5
same,HDL Baseline,[2]; TG baseline range 300-1000,37
same,HDL Endpoint,[2]; TG baseline range 300-1000,38
same,Non-HDL Cholesterol Total % reduction from baseline,[2]; TG baseline range 300-1000,10%
same,Non-HDL Cholesterol Total Baseline,[2]; TG baseline range 300-1000,181
same,Non-HDL Cholesterol Total Endpoint,[2]; TG baseline range 300-1000,163
same,Triglycerides % reduction from baseline,[2]; TG baseline range 300-1000,36%
same,Triglycerides Baseline,[2]; TG baseline range 300-1000,470
same,Triglycerides Endpoint,[2]; TG baseline range 300-1000,301
same,"Non-HDL Cholesterol Total % reduction from baseline, LANTUS-AMARYL",[2]; TG baseline range 300-1000,5%
same,"Non-HDL Cholesterol Total change at endpoint, LANTUS-AMARYL",[2]; TG baseline range 300-1000,8.6
same,"Triglycerides % reduction from baseline, LANTUS-AMARYL",[2]; TG baseline range 300-1000,13%
same,"Triglycerides change at endpoint, LANTUS-AMARYL",[2]; TG baseline range 300-1000,63.6
same,HDL Baseline,[2]; TG baseline range 500-1000,33
same,HDL Endpoint,[2]; TG baseline range 500-1000,36
same,Non-HDL Cholesterol Total % reduction from baseline,[2]; TG baseline range 500-1000,8%
same,Non-HDL Cholesterol Total Baseline,[2]; TG baseline range 500-1000,186
same,Non-HDL Cholesterol Total Endpoint,[2]; TG baseline range 500-1000,171
same,Triglycerides % reduction from baseline,[2]; TG baseline range 500-1000,38%
same,Triglycerides Baseline,[2]; TG baseline range 500-1000,661
same,Triglycerides Endpoint,[2]; TG baseline range 500-1000,409
same,"Non-HDL Cholesterol Total % reduction from baseline, LANTUS-AMARYL",[2]; TG baseline range 500-1000,−2%
same,"Non-HDL Cholesterol Total change at endpoint, LANTUS-AMARYL",[2]; TG baseline range 500-1000,−9.0
same,"Triglycerides % reduction from baseline, LANTUS-AMARYL",[2]; TG baseline range 500-1000,5%
same,"Triglycerides change at endpoint, LANTUS-AMARYL",[2]; TG baseline range 500-1000,34.4
same,LDL Baseline,[2]; TG baseline range All,113
same,LDL Endpoint,[2]; TG baseline range All,110
same,reduction in fasting TG levels,[2]; all patients,24%
same,reduction in fasting TG levels,[2]; elevations of 500 mg/dL or more,38%
same,reduction in fasting TG levels,[2]; fasting TG in the 300-499 mg/dL range,34%
same,"Treatment-emergent adverse events (TEAEs), events",[3]; in vivo,16 events
same,"Treatment-emergent adverse events (TEAEs), subjects",[3]; in vivo,10 subjects
same,headache,[3]; in vivo,3 subjects
same,safety and tolerability,[3]; in vivo,safe and well tolerated
same,serious adverse events,[3]; in vivo,no serious adverse events
same,subjects with events considered by investigators as possibly related to study drug,[3]; in vivo,2 subjects
same,mild hypoglycemia,[3]; out of 16 subjects treated,4 subjects
same,duration of action,[4],up to 24 hour
same,doses to reach steady-state levels,[5],2 doses
